In patent US8835462B2, “Macrocyclic picolinamides as fungicides” (Dow AgroSciences LLC, priority 2012, dated 2014):
Read-outs that look alike come from different tables or passages of the source.

Columns and labels:
[1] = system: Mycosphaerella graminicola; Anamorph: Septoria tritici; experiment: Leaf blotch of wheat (SEPTTR) fungicidal activity on wheat seedlings; format: in vivo; settings: Zymoseptoria tritici
Method: Evaluation of Fungicidal Activity: Leaf Blotch of Wheat (Mycosphaerella Graminicola; Anamorph: Septoria tritici; Bayer Code […]) Technical grades of materials were dissolved in acetone, which were then mixed with nine volumes of water containing 110 ppm Triton X-100. The fungicide solutions were applied onto wheat seedlings using an automated booth sprayer to run-off. All sprayed plants were allowed to air dry prior to further handling. Wheat plants (variety Yuma) were grown from seed in a greenhouse in 50% mineral soil/50% soil-less Metro mix until the first leaf was fully emerged, with 7-10 seedlings per pot. These plants were inoculated with an aqueous spore suspension of Septoria tritici either prior to or after fungicide treatments. After inoculation the plants were kept in 100% relative humidity (one day in a dark dew chamber followed by two to three days in a lighted dew chamber at 20° C.) to permit spores to germinate and infect the leaf. The plants were then transferred to a greenhouse set at 20° C. for disease to develop. When disease symptoms were fully expressed on the 1st leaves of untreated plants, infection levels were assessed on a scale of 0 to 100 percent disease severity. Percent disease control was calculated using the ratio of disease severity on treated plants relative to untreated plants.

Puccinia triticina [2] = experiment: Wheat brown rust (PUCCRT) fungicidal activity on wheat seedlings; format: in vivo
Method: Technical grades of materials were dissolved in acetone, which were then mixed with nine volumes of water containing 110 ppm Triton X-100. The fungicide solutions were applied onto wheat seedlings using an automated booth sprayer to run-off. All sprayed plants were allowed to air dry prior to further handling. Wheat plants (variety Yuma) were grown from seed in a greenhouse in 50% mineral soil/50% soil-less Metro mix until the first leaf was fully emerged, with 7-10 seedlings per pot. These plants were inoculated with an aqueous spore suspension of Septoria tritici either prior to or after fungicide treatments. After inoculation the plants were kept in 100% relative humidity (one day in a dark dew chamber followed by two to three days in a lighted dew chamber at 20° C.) to permit spores to germinate and infect the leaf. The plants were then transferred to a greenhouse set at 20° C. for disease to develop. When disease symptoms were fully expressed on the 1st leaves of untreated plants, infection levels were assessed on a scale of 0 to 100 percent disease severity. Percent disease control was calculated using the ratio of disease severity on treated plants relative to untreated plants. Evaluation of Fungicidal Activity: Wheat Brown Rust (Puccinia triticina; Synonym: Puccinia recondita f. sp. tritici; Bayer Code PUCCRT) Wheat plants (variety Yuma) were grown from seed in a greenhouse in 50% mineral soil/50% soil-less Metro mix until the first leaf was fully emerged, with 7-10 seedlings per pot. These plants were inoculated with an aqueous spore suspension of Puccinia triticina either prior to or after fungicide treatments. After inoculation the plants were kept in a dark dew room at 22° C. with 100% relative humidity overnight to permit spores to germinate and infect the leaf. The plants were then transferred to a greenhouse set at 24° C. for disease to develop. Fungicide formulation, application and disease assessment followed the procedures as described in the Example A.

Puccinia triticina [3] = experiment: Fungicide mobility (dropline mobility test), wheat brown rust (PUCCRT); format: in vivo; settings: 1 ug/leaf, disease-free zone as percent of distance from marked line to leaf tip; for Dropline Mobility Test PUCCRT 1 DPM: 1 Day Protectant Mobility; for Dropline Mobility Test PUCCRT 3 DCM: 3 Day Curative Mobility
Method: Evaluation of Fungicide Mobility: Wheat Brown Rust (Puccinia Triticina; Synonym: Puccinia recondita f. sp. Tritici; Bayer Code PUCCRT):
“Yuma” wheat seedlings were used in the test. One mg of compound was dissolved in 9 μl of EC blank (emulsifiable concentrate) and 500 μl of acetone. Acetone was then evaporated overnight by leaving the vial open in a fume hood. Two milliliters of water containing 110 ppm Triton X-100 was added to each vial to prepare application solutions. A […] drop of formulated material was applied to a marked line on the adaxial surface 5 cm from the leaf tip of the primary leaves. The primary leaves were kept in a horizontal position. Each treatment had 6 replicates. Plants were inoculated with PUCCRT 1-day after (1DPM) or 3-day prior to (3DCM) compound applications. When rust was fully expressed on primary leaves on control plants, the zone of treated leaves that was disease-free in the acropetal direction was measured with a ruler and converted to percent of the distance from marked line to leaf tip.

[4] = 24 h, 1 Day Protectant, read-out: Disease Control SEPTTR 1 DP
[5] = 72 h, 3 Day Curative, read-out: Disease Control SEPTTR 3 DC
[6] = 24 h, 1 Day Protectant, read-out: Disease Control PUCCRT 1 DP
[7] = 72 h, 3 Day Curative, read-out: Disease Control PUCCRT 3 DC

melting point	Compound	pest or weed control at 100 ppm [1, 4]	pest or weed control at 100 ppm [1, 5]	pest or weed control at 100 ppm (Puccinia triticina [2]; [6])	pest or weed control at 100 ppm (Puccinia triticina [2]; [7])	Dropline Mobility Test PUCCRT 1 DPM (Puccinia triticina [3])	Dropline Mobility Test PUCCRT 3 DCM (Puccinia triticina [3])
66 to 70 °C	COc1ccnc(C(=O)N[C@H]2COC[C@H](Cc3ccccc3)[C@@H](OC(=O)C(C)C)[C@H](C)OC2=O)c1O [Compound 1]	80 to 100%	80 to 100%	80 to 100%	80 to 100%	B (More than 0-Less than 80)	B (More than 0-Less than 80)
96 to 104 °C	C=C(C)CO[C@@H]1[C@@H](Cc2ccccc2)COC[C@H](NC(=O)c2nccc(OC)c2O)C(=O)O[C@H]1C [Compound 6]	80 to 100%	0 to 80%	80 to 100%	80 to 100%		
102 to 104 °C	CCCO[C@@H]1[C@@H](Cc2ccccc2)COC[C@H](NC(=O)c2nccc(OC)c2O)C(=O)O[C@H]1C [Compound 17]	80 to 100%	80 to 100%	80 to 100%	80 to 100%	B (More than 0-Less than 80)	B (More than 0-Less than 80)
52 to 56 °C	CCCC(C)O[C@@H]1[C@@H](Cc2ccccc2)COC[C@H](NC(=O)c2nccc(OC)c2O)C(=O)O[C@H]1C (stereo partly shown) [Compound 19]	80 to 100%	80 to 100%	80 to 100%	80 to 100%	B (More than 0-Less than 80)	
51 to 56 °C	CCCCCO[C@@H]1[C@@H](Cc2ccccc2)COC[C@H](NC(=O)c2nccc(OC)c2O)C(=O)O[C@H]1C [Compound 21]	0 to 80%	0 to 80%	80 to 100%	0 to 80%	B (More than 0-Less than 80)	
57 to 70 °C	COc1ccnc(C(=O)N[C@H]2COC[C@H](Cc3ccccc3)[C@@H](OC)[C@H](C)OC2=O)c1O [Compound 32]	0 to 80%	80 to 100%	80 to 100%	0 to 80%	B (More than 0-Less than 80)	B (More than 0-Less than 80)
62 to 67 °C	C[C@@H]1OC(=O)[C@@H](NC(=O)OC(C)(C)C)COC[C@H](Cc2ccccc2)[C@H]1O [Compound 48, tert-Butyl-(3S,7S,8R,9S)-7-benzyl-8-hydroxy-9-methyl-2-oxo-1,5-dioxonan-3-ylcarbamate]						
142 to 143 °C	C[C@@H]1OC(=O)[C@@H](NC(=O)OC(C)(C)C)COC[C@H](Cc2ccccc2)[C@H]1OCCC(=O)N(C)C [Compound 53, tert-butyl ((3S,7S,8R,9S)-7-benzyl-8-(3-(dimethylamino)-3-oxopropoxy)-9-methyl-2-oxo-1,5-dioxonan-3-yl)carbamate]						
54 to 63 °C	C[C@@H]1OC(=O)[C@@H](NC(=O)OC(C)(C)C)COC[C@H](Cc2ccccc2)[C@H]1OC(=O)c1ccccc1 [Compound 61]						
72 to 85 °C	C[C@@H]1OC(=O)[C@@H](NC(=O)OC(C)(C)C)COC[C@H](Cc2ccccc2)[C@H]1OC(=O)C1CC1 [Compound 62]						
88 to 90 °C	C=CCO[C@@H]1[C@@H](Cc2ccccc2)COC[C@H](N(C(=O)OC(C)(C)C)C(=O)OC(C)(C)C)C(=O)O[C@H]1C [Compound 65]						
131 to 133 °C	C[C@@H]1OC(=O)[C@@H](N(C(=O)OC(C)(C)C)C(=O)OC(C)(C)C)COC[C@H](Cc2ccccc2)[C@H]1OC/C=C/C(F)(F)F [Compound 66]						
80 to 83 °C	C/C=C/C(C)O[C@@H]1[C@@H](Cc2ccccc2)COC[C@H](N(C(=O)OC(C)(C)C)C(=O)OC(C)(C)C)C(=O)O[C@H]1C (stereo partly shown) [Compound 67]						
98 to 100 °C	CCCO[C@@H]1[C@@H](Cc2ccccc2)COC[C@H](N(C(=O)OC(C)(C)C)C(=O)OC(C)(C)C)C(=O)O[C@H]1C [Compound 68]						
100 to 102 °C	C[C@@H]1OC(=O)[C@@H](N(C(=O)OC(C)(C)C)C(=O)OC(C)(C)C)COC[C@H](Cc2ccccc2)[C@H]1OCCCC(F)(F)F [Compound 69]						
127 to 129 °C	CC/C=C/CO[C@@H]1[C@@H](Cc2ccccc2)COC[C@H](N(C(=O)OC(C)(C)C)C(=O)OC(C)(C)C)C(=O)O[C@H]1C [Compound 71]						
94 to 97 °C	CCCCCO[C@@H]1[C@@H](Cc2ccccc2)COC[C@H](N(C(=O)OC(C)(C)C)C(=O)OC(C)(C)C)C(=O)O[C@H]1C [Compound 72]						

Compound	melting point	pest or weed control at 100 ppm [1, 4]	pest or weed control at 100 ppm [1, 5]	pest or weed control at 100 ppm (Puccinia triticina [2]; [6])	pest or weed control at 100 ppm (Puccinia triticina [2]; [7])	Dropline Mobility Test PUCCRT 1 DPM (Puccinia triticina [3])	Dropline Mobility Test PUCCRT 3 DCM (Puccinia triticina [3])
COc1ccnc(C(=O)N[C@H]2COC[C@H](CC3CCCCC3)[C@@H](OCC(C)C)[C@H](C)OC2=O)c1O [Compound 4, N-((3S,7S,8R,9S)-7-(cyclohexylmethyl)-8-isobutoxy-9-methyl-2-oxo-1,5-dioxonan-3-yl)-3-hydroxy-4-methoxypicolinamide]	89 to 92 °C	80 to 100%	80 to 100%	80 to 100%	80 to 100%		
COC(=O)/C=C/O[C@@H]1[C@@H](Cc2ccccc2)COC[C@H](NC(=O)OC(C)(C)C)C(=O)O[C@H]1C [Compound 49, (E)-methyl 3-(((3S,6S,7R,8S)-8-benzyl-3-((tert-butoxycarbonyl)amino)-6-methyl-4-oxo-1,5-dioxonan-7-yl)oxy)acrylate]	128 to 129 °C						
C[C@@H]1OC(=O)[C@@H](NC(=O)OC(C)(C)C)COC[C@H](Cc2ccccc2)[C@H]1O/C=C/C(=O)OCc1ccccc1 [Compound 51, (E)-benzyl 3-(((3S,6S,7R,8S)-8-benzyl-3-((tert-butoxycarbonyl)amino)-6-methyl-4-oxo-1,5-dioxonan-7-yl)oxy)acrylate]	182 to 185 °C						
C[C@@H]1OC(=O)[C@@H](N(C(=O)OC(C)(C)C)C(=O)OC(C)(C)C)COC[C@H](Cc2ccccc2)[C@H]1O [Compound 57, tert-butyl N-[(3S,7S,8R,9S)-7-benzyl-8-hydroxy-9-methyl-2-oxo-1,5-dioxonan-3-yl]-N-tert-butoxycarbonylcarbamate]	139 to 141 °C						
C=C(C)CO[C@@H]1[C@@H](Cc2ccccc2)COC[C@H](N(C(=O)OC(C)(C)C)C(=O)OC(C)(C)C)C(=O)O[C@H]1C [Compound 82, tert-butyl N-[(3S,7S,8R,9S)-7-benzyl-9-methyl-8-(2-methylallyloxy)-2-oxo-1,5-dioxonan-3-yl]-N-tert-butoxycarbonylcarbamate]	109 to 110 °C						
